Experimental data taken from PubChem BioAssay (NCI).
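Method: 48-hour compound exposure of cells in 96-well plates, five concentrations, linear interpolation of endpoints. GI50: concentration for 50% inhibition of growth. The concentration for full growth arrest is given as TGI.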

Tests used:
Assay in all cases: NCI-60 cell line screen, 48 h
[1] = system: SF-295 CNS
[2] = system: HCC-2998 colon
[3] = system: HS 578T breast
[4] = system: HCT-116 colon
[5] = system: A498 renal
[6] = system: COLO 205 colon
[7] = system: RXF 393 renal
[8] = system: SK-OV-3 ovarian
[9] = system: SF-268 CNS
[10] = system: HL-60(TB) leukemia
[11] = system: UO-31 renal
[12] = system: MCF7 breast
[13] = system: PC-3 prostate
[14] = system: DU-145 prostate
[15] = system: SK-MEL-28 melanoma
[16] = system: T-47D breast
[17] = system: SN12C renal
[18] = system: HOP-62 NSCLC
[19] = system: SK-MEL-5 melanoma
[20] = system: SK-MEL-2 melanoma
[21] = system: MDA-MB-231 breast
[22] = system: ACHN renal
[23] = system: SW-620 colon
[24] = system: HT29 colon
[25] = system: IGROV1 ovarian
[26] = system: OVCAR-5 ovarian
[27] = system: U251 CNS
[28] = system: NCI-H460 lung
[29] = system: UACC-257 melanoma
[30] = system: MOLT-4 leukemia
[31] = system: TK-10 renal
[32] = system: NCI-H23 lung
[33] = system: UACC-62 melanoma
[34] = system: CAKI-1 renal
[35] = system: SF-539 CNS
[36] = system: M14 melanoma
[37] = system: 786-0 renal

`C=CC[N+]1(CC)CCN=C1CCCCCCCCCCCCCCCCC` (centres undefined) gave a GI50 [1] of 249 nM, a TGI [1] of 936 nM and a GI50 [2] of 241 nM. For the same compound, the TGI [2] was 797 nM, the GI50 [3] was 432 nM and the TGI [3] was 1570 nM. It also gave a GI50 [4] of 294 nM, a TGI [4] of 1150 nM and a GI50 [5] of 1440 nM. It also gave a TGI [5] of 2860 nM, a GI50 [6] of 651 nM and a TGI [6] of 2290 nM. It also gave a GI50 [7] of 205 nM, a TGI [7] of 836 nM and a GI50 [8] of 1120 nM. It also gave a TGI [8] of 2330 nM, a GI50 [9] of 236 nM and a TGI [9] of 610 nM. It also gave a GI50 [10] of 562 nM, a TGI [10] of 2070 nM and a GI50 [11] of 1140 nM. For the same compound, the TGI [11] was 2430 nM, the GI50 [12] was 346 nM and the TGI [12] was 1280 nM. It also gave a GI50 [13] of 237 nM, a TGI [13] of 702 nM and a GI50 [14] of 659 nM. The TGI [14] was 2020 nM, the GI50 [15] was 816 nM and the TGI [15] was 2040 nM. The GI50 [16] was 315 nM, the TGI [16] was 1620 nM and the GI50 [17] was 623 nM. For the same compound, the TGI [17] was 1990 nM, the GI50 [18] was 530 nM and the TGI [18] was 1750 nM. The GI50 [19] was 355 nM, the TGI [19] was 1300 nM and the GI50 [20] was 538 nM. For the same compound, the TGI [20] was 1590 nM, the GI50 [21] was 763 nM and the TGI [21] was 2190 nM. For the same compound, the GI50 [22] was 1190 nM, the TGI [22] was 2520 nM and the GI50 [23] was 499 nM. The TGI [23] was 1710 nM, the GI50 [24] was 375 nM and the TGI [24] was 1240 nM. The GI50 [25] was 237 nM, the TGI [25] was 475 nM and the GI50 [26] was 472 nM. The TGI [26] was 1640 nM, the GI50 [27] was 386 nM and the TGI [27] was 1470 nM. It also gave a GI50 [28] of 429 nM, a TGI [28] of 1460 nM and a GI50 [29] of 731 nM. For the same compound, the TGI [29] was 2160 nM, the GI50 [30] was 1070 nM and the TGI [30] was 3510 nM. It also gave a GI50 [31] of 1100 nM, a TGI [31] of 2440 nM and a GI50 [32] of 119 nM. The TGI [32] was 589 nM, the GI50 [33] was 935 nM and the TGI [33] was 2300 nM. For the same compound, the GI50 [34] was 1200 nM, the TGI [34] was 2630 nM and the GI50 [35] was 752 nM. The TGI [35] was 2050 nM, the GI50 [36] was 350 nM and the TGI [36] was 1280 nM. The GI50 [37] was 788 nM and the TGI [37] was 2110 nM.
